In ChEMBL document CHEMBL4483862, “Open-source discovery of chemical leads for next-generation chemoprotective antimalarials” (2018):

Tested on: Plasmodium berghei
Test: Luciferase/luciferin-expressing antifolate-resistant parasites were used to infect a culture of HepG2 cells that were pre-incubated with compounds. Infected hepatocytes emit light due to the luciferase reaction. Assay results are presented as the percent inhibition of light emission compared to control. […]
Format: functional
Conditions: sporozoite; for IC90: read-out: LUCIFERASE INFECTION ASSAY - IC90
[1] = read-out: LUCIFERASE INFECTION ASSAY - IC50

| Compound | IC90 [µM] | IC50 [1] [µM] | also measured |
| --- | --- | --- | --- |
| Clc1ccc(Cl)c(-c2ccc(CNCCN3CCNCC3)o2)c1 | 7.07 | – | IC50 (HEPG2TOX_HILL_SLOPE 36.7, HEPG2TOX_R_SQUARED 0.263, PBLUC_HILL_SLOPE 4.39, PBLUC_R_SQUARED 0.663, read-out: LUCIFERASE INFECTION ASSAY - IC50): 4.28 µM |
| Cc1cc(=O)n2ncnc2n1CC(O)COc1ccc(Oc2ccccc2)cc1 (stereo not given) | 8.2 | – | IC50 (HEPG2TOX_HILL_SLOPE 1.76, HEPG2TOX_R_SQUARED 0.892, PBLUC_HILL_SLOPE 2.97, PBLUC_R_SQUARED 0.356, read-out: LUCIFERASE INFECTION ASSAY - IC50): 3.91 µM |
| Cc1ccc(OC(=O)c2ccc(C(C)(C)C)cc2)c(NC(=O)c2ccc(C(C)(C)C)cc2)c1 | > 7.44 | – | IC50 (FFLUC_HILL_SLOPE 1.14, FFLUC_R_SQUARED 0.535, PBLUC_HILL_SLOPE 1.18, PBLUC_R_SQUARED 0.716, read-out: LUCIFERASE INFECTION ASSAY - IC50): 1.43 µM |
| COc1ccc(C)cc1NC(=O)c1ccc(NC(=O)Nc2ccccc2)s1 | > 10 | – | IC50 (PBLUC_HILL_SLOPE 2.41, PBLUC_R_SQUARED 0.229, read-out: LUCIFERASE INFECTION ASSAY - IC50): 7.11 µM |
| Cc1nn2c(nc(Sc3nnnn3C(C)C)c3ccccc32)c1Cl | > 10 | – | IC50 (PBLUC_HILL_SLOPE 6.07, PBLUC_R_SQUARED 0.112, read-out: LUCIFERASE INFECTION ASSAY - IC50): 8.31 µM |
| CNc1ncnc(NNC(=O)Nc2ccc(Cl)cc2)c1[N+](=O)[O-] | > 9.77 | – | IC50 (PBLUC_HILL_SLOPE 3.27, PBLUC_R_SQUARED 0.316, read-out: LUCIFERASE INFECTION ASSAY - IC50): 5.92 µM |
| Cc1nnsc1C(=O)Nc1ccc(-n2nc(C(F)(F)F)cc2C(F)(F)F)cc1 | > 7.83 | – | IC50 (PBLUC_HILL_SLOPE 2.63, PBLUC_R_SQUARED 0.209, read-out: LUCIFERASE INFECTION ASSAY - IC50): 5.65 µM |
| CCc1ccccc1Nc1nc(N)nc(CN2CCc3ccccc32)n1 | > 10 | – | IC50 (PBLUC_HILL_SLOPE 1.23, PBLUC_R_SQUARED 0.247, read-out: LUCIFERASE INFECTION ASSAY - IC50): 5.31 µM |
| CCOC(=O)C1CCN(c2cc(C(F)(F)F)nc3c(F)cccc23)CC1 | > 8.91 | – | IC50 (FFLUC_HILL_SLOPE 11, FFLUC_R_SQUARED 0.219, read-out: LUCIFERASE INFECTION ASSAY - IC50): > 8.91 µM |
| Cc1ccc(S(=O)(=O)N2Cc3ccccc3C(C)CC23CCCCC3)cc1 (stereo not given) | > 8.6 | – | IC50 (PBLUC_HILL_SLOPE 1.1, PBLUC_R_SQUARED 0.205, read-out: LUCIFERASE INFECTION ASSAY - IC50): > 8.6 µM |
| COc1ccc(CCN2CSC(=S)N(CCc3ccc(OC)c(OC)c3)C2)cc1OC | > 7.13 | > 7.13 | – |
| CSC1=CC(=O)CC(C)(C)S1 | > 17.5 | > 17.5 | – |
| CC(NC(=O)Nc1ccc(C#N)cc1)c1ccc2ccccc2c1 (stereo not given) | > 10 | – | IC50 (PBLUC_HILL_SLOPE 12.1, PBLUC_R_SQUARED 0.463, read-out: LUCIFERASE INFECTION ASSAY - IC50): 9.4 µM |
| Cc1ccn2cc(C(=O)Nc3nc(C(C)C)cs3)nc2c1 | > 10 | – | IC50 (PBLUC_HILL_SLOPE 42, PBLUC_R_SQUARED 0.63, read-out: LUCIFERASE INFECTION ASSAY - IC50): 9.53 µM |
| O=C(Cc1csc(-c2ccccc2Cl)n1)NCCCCOc1ccc(F)cc1 | > 10 | – | IC50 (HEPG2TOX_HILL_SLOPE 9.37, HEPG2TOX_R_SQUARED 0.776, PBLUC_HILL_SLOPE 2.48, PBLUC_R_SQUARED 0.584, read-out: LUCIFERASE INFECTION ASSAY - IC50): 5.48 µM |
| Cc1occc1C(=O)Nc1ccc(Cl)c(C(F)(F)F)c1 | > 10 | – | IC50 (PBLUC_HILL_SLOPE 1.47, PBLUC_R_SQUARED 0.656, read-out: LUCIFERASE INFECTION ASSAY - IC50): 6.43 µM |
| CC(C)(C)c1csc(NC(=O)Nc2ccccc2)n1 | > 12 | – | IC50 (HEPG2TOX_HILL_SLOPE 1.38, HEPG2TOX_R_SQUARED 0.755, PBLUC_HILL_SLOPE 7.68, PBLUC_R_SQUARED 0.272, read-out: LUCIFERASE INFECTION ASSAY - IC50): 9.6 µM |
| CCOC(=O)C1=C(C)N(S(=O)(=O)c2ccc(C)cc2)C(SC)=NC1c1ccccc1 (stereo not given) | > 7.42 | > 7.42 | – |
| C=CC/N=c1\scc(-c2ccc(Br)s2)n1/N=C/c1ccccn1 | 4.27 | 3.59 | – |
| O=C(Nc1nc2ccccc2[nH]1)c1ccc(Cl)c(S(=O)(=O)N2CCc3ccccc32)c1 | > 10 | – | IC50 (HEPG2TOX_HILL_SLOPE 9.78, HEPG2TOX_R_SQUARED 0.833, PBLUC_HILL_SLOPE 14, PBLUC_R_SQUARED 0.17, read-out: LUCIFERASE INFECTION ASSAY - IC50): 8.7 µM |
| C=CCNc1nc2cc(-c3ccccc3C)sc2c(=O)n1C | > 10.6 | – | IC50 (HEPG2TOX_HILL_SLOPE 8.49, HEPG2TOX_R_SQUARED 0.617, read-out: LUCIFERASE INFECTION ASSAY - IC50): > 10.6 µM |
| Cc1onc(-c2ccccc2)c1-c1ccnc(-c2ccc(Cl)cc2)n1 | 4.54 | – | IC50 (HEPG2TOX_HILL_SLOPE 2.45, HEPG2TOX_R_SQUARED 0.972, PBLUC_HILL_SLOPE 2.42, PBLUC_R_SQUARED 0.716, read-out: LUCIFERASE INFECTION ASSAY - IC50): 1.83 µM |

| Compound | IC90 [µM] | IC50 [1] [µM] | also measured |
| --- | --- | --- | --- |
| COc1ccc(-c2csc3ncnc(Sc4nnnn4CC4CCCO4)c23)cc1 (stereo not given) | > 10 | – | IC50 (HEPG2TOX_HILL_SLOPE 3.82, HEPG2TOX_R_SQUARED 0.683, PBLUC_HILL_SLOPE 2.52, PBLUC_R_SQUARED 0.576, read-out: LUCIFERASE INFECTION ASSAY - IC50): 6.48 µM |
| O=c1c2cc(Br)cc(Br)c2nc(-c2ccccc2)n1-c1cc(C(F)(F)F)cc(C(F)(F)F)c1 | > 5.57 | > 5.57 | – |
| O=C(Nc1ccc(Oc2ccc(F)cc2)nc1)c1cccc(-n2cnnn2)c1 | > 10 | – | IC50 (PBLUC_HILL_SLOPE 8.75, PBLUC_R_SQUARED 0.449, read-out: LUCIFERASE INFECTION ASSAY - IC50): 8.72 µM |
| CC(Sc1nc2ccccc2c(=O)n1CCCN1CCOCC1)c1ccc(F)cc1 (stereo not given) | > 10 | > 10 | – |
| CN(C)Cc1ccc(C(=O)Nc2nc3ccccc3[nH]2)cc1 | 0.483 | – | – |
| Cc1ccc(Nc2nc(NCCO)c3ccccc3n2)cc1 | > 10 | 4.79 | – |
| Nc1ncc(-c2ccc(-c3ccccc3)cc2F)cc1-c1cncc2ccccc12 | > 8.43 | – | IC50 (PBLUC_HILL_SLOPE 1.93, PBLUC_R_SQUARED 0.0355, read-out: LUCIFERASE INFECTION ASSAY - IC50): > 8.43 µM |
| CN(C)Cc1ccccc1NC(=O)Nc1ccc(Cl)cc1 | 7.23 | – | IC50 (PBLUC_HILL_SLOPE 3.91, PBLUC_R_SQUARED 0.658, read-out: LUCIFERASE INFECTION ASSAY - IC50): 4.13 µM |
| CCc1cccc(CC)c1N(C(C)=O)c1nc(/C=C/C(=O)c2ccc3c(c2)OCCO3)cs1 | 3.81 | – | IC50 (FFLUC_HILL_SLOPE 12.1, FFLUC_R_SQUARED 0.466, HEPG2TOX_HILL_SLOPE 15.2, HEPG2TOX_R_SQUARED 0.81, PBLUC_HILL_SLOPE 12.5, PBLUC_R_SQUARED 0.644, read-out: LUCIFERASE INFECTION ASSAY - IC50): 3.2 µM |
| CCC(C)c1ccc(-c2cc(C(=O)OCC(=O)N3c4ccccc4NC(=O)C3(C)C)c3ccccc3n2)cc1 (stereo not given) | > 10 | 8.86 | – |
| COCCNc1cc(C)nc2c(-c3ccc(C)cc3)c(C)nn12 | > 10.6 | – | IC50 (HEPG2TOX_HILL_SLOPE 7.65, HEPG2TOX_R_SQUARED 0.721, PBLUC_HILL_SLOPE 1.1, PBLUC_R_SQUARED 0.545, read-out: LUCIFERASE INFECTION ASSAY - IC50): 3.65 µM |
| C=CCNC(=O)CN(c1ccc(Br)cc1)S(C)(=O)=O | > 9.5 | > 9.5 | – |
| CNc1snc(C)c1C(=O)OCc1csc(-c2ccccc2)n1 | 1.26 | – | IC50 (HEPG2TOX_HILL_SLOPE 0.385, HEPG2TOX_R_SQUARED 0.759, PBLUC_HILL_SLOPE 1.19, PBLUC_R_SQUARED 0.693, read-out: LUCIFERASE INFECTION ASSAY - IC50): 0.2 µM |
| CC(=O)N(/N=C/c1ccc(C(F)(F)F)cc1)C1=NN(C(C)=O)C(c2ccc(C(F)(F)F)cc2)S1 (stereo not given) | > 6.57 | > 6.57 | – |
| CSc1nc2nc(C)c(CCC(=O)N(CC(F)(F)F)C(C)C3CC3)c(C)n2n1 (stereo not given) | 1.24 | 0.994 | – |
| N#Cc1c(N=Cc2c(O)n(-c3ccc(Br)cn3)c(=O)c3ccccc23)sc2c1CCC2 | > 10 | – | IC50 (HEPG2TOX_HILL_SLOPE 5.03, HEPG2TOX_R_SQUARED 0.905, PBLUC_HILL_SLOPE 1.74, PBLUC_R_SQUARED 0.542, read-out: LUCIFERASE INFECTION ASSAY - IC50): 6.14 µM |
| Cc1ccc(C2(c3ccccc3)NC(=O)N(CC(=O)c3ccc(Br)s3)C2=O)cc1C (stereo not given) | 3.91 | – | IC50 (FFLUC_HILL_SLOPE 2.42, FFLUC_R_SQUARED 0.19, PBLUC_HILL_SLOPE 12.8, PBLUC_R_SQUARED 0.482, read-out: LUCIFERASE INFECTION ASSAY - IC50): 3.29 µM |
| CCCCNC(=O)c1c(NC(=O)c2ccc(F)c(F)c2)nc2ccc(C)cn12 | 3.54 | – | IC50 (FFLUC_HILL_SLOPE 0.0723, FFLUC_R_SQUARED 0.0194, HEPG2TOX_HILL_SLOPE 0.765, HEPG2TOX_R_SQUARED 0.862, PBLUC_HILL_SLOPE 1.87, PBLUC_R_SQUARED 0.784, read-out: LUCIFERASE INFECTION ASSAY - IC50): 1.09 µM |
| Cc1cc(C(=O)CN2C(=O)NC(C)(c3ccc(C(C)(C)C)cc3)C2=O)c(C)n1C (stereo not given) | > 10 | > 10 | – |
| NS(=O)(=O)c1ccc(N2CCOCC2)c(C(=O)NCCOc2ccc3ccccc3c2)c1 | > 10 | > 10 | – |
| CCOC(=O)c1ccccc1NC(=O)C1CCN(c2ncnc3sc(C)c(C)c23)CC1 | > 10 | – | IC50 (PBLUC_HILL_SLOPE 0.744, PBLUC_R_SQUARED 0.552, read-out: LUCIFERASE INFECTION ASSAY - IC50): 5.7 µM |
